Test results reported in PMC2859624 (Progress in neuro-psychopharmacology & biological psychiatry, 2010).
Read-outs that look alike come from different tables or passages of the source.

Experiments:
male Wistar rats [1] = assay: Spontaneous locomotor activity; settings: for dose inducing a hypolocomotor effect in the SLA: i.p.; for effect on total distance travelled during 45 min: 20 min before test, vs solvent; for effect on total distance (locomotion), 30 min: Dunnett's test
male Wistar rats [2] = assay: Elevated plus maze; type: in vivo, rat; settings: for effect on percentage of time on open arms: post hoc p 0.032
[3] = biological target: human GABAA receptor containing α5 subunit (BZ site) (Homo sapiens, UniProt P18507+P31644); assay: Competition binding assay with [3H]flunitrazepam
[4] = biological target: human GABAA receptor containing α3 subunit (BZ site) (Homo sapiens, UniProt P18507+P34903); assay: Competition binding assay with [3H]flunitrazepam; settings: read-out: Ki α3, transfected HEK 293T, duplicate
α3β3γ2 GABAA receptors [5] = biological target: T1, α3β3γ2 GABAA receptors (Rattus norvegicus, UniProt P18508+P20236); settings: 100 nM, EC3 GABA, mean ± SEM; ref Rivas et al., 2009; cited from earlier work
α5β3γ2 GABAA receptors [6] = biological target: T2, α5β3γ2 GABAA receptors (Rattus norvegicus, UniProt P18508+P19969); settings: 100 nM, EC3 GABA, mean ± SEM; ref Rivas et al., 2009; cited from earlier work
α2β3γ2 GABAA receptors [7] = biological target: T3, α2β3γ2 GABAA receptors (Rattus norvegicus, UniProt P18508+P23576); settings: 100 nM, EC3 GABA, mean ± SEM; ref Rivas et al., 2009; cited from earlier work
α1β3γ2 GABAA receptors [8] = biological target: T4, α1β3γ2 GABAA receptors (Rattus norvegicus, UniProt P18508+P62813); settings: 100 nM, EC3 GABA, mean ± SEM; ref Rivas et al., 2009; cited from earlier work
[9] = biological target: human GABAA receptor containing α4 subunit (BZ site); settings: read-out: Ki α4; second independent set of experiments
male Wistar rats [10] = assay: Morris water maze; type: in vivo, rat; settings: for platform zone entries during the probe trial: after five-day treatment at 30 mg/kg i.p.; for overall influence on water maze learning parameters (acquisition): 5 days
α5β3γ2 GABAA receptors [11] = biological target: T2, α5β3γ2 GABAA receptors; type: cell-based; settings: for % of control current, α5β3γ2: 100 nM, EC3 GABA, mean ± SEM
α2β3γ2 GABAA receptors [12] = biological target: T3, α2β3γ2 GABAA receptors; type: cell-based; settings: for % of control current, α2β3γ2: 100 nM, EC3 GABA, mean ± SEM, 0.1 µM
α3β3γ2 GABAA receptors [13] = biological target: T1, α3β3γ2 GABAA receptors; type: cell-based; settings: for remaining activity at 0.1 µM: read-out: % of control current, α3β3γ2, 100 nM, EC3 GABA, mean ± SEM
α1β3γ2 GABAA receptors [14] = biological target: T4, α1β3γ2 GABAA receptors; type: cell-based
male Wistar rats [15] = settings: 30 mg/kg; ref Savić et al., 2008b; cited from earlier work
male Wistar rats [16] = settings: ref Savić et al., 2008b, cited from earlier work
[17] = biological target: human GABAA receptor containing α6 subunit (BZ site) (Homo sapiens, UniProt P18507+Q16445); assay: Competition binding assay with [3H]flunitrazepam; settings: read-out: Ki α6, transfected HEK 293T, duplicate
[18] = read-out: % of control current, α1β3γ2
[19] = zolpidem 0.5 mg/kg during acquisition, ±SEM
[20] = zolpidem 1.0 mg/kg during acquisition, ±SEM
[21] = zolpidem 2.0 mg/kg during acquisition, ±SEM
[22] = zolpidem 2.0 mg/kg during acquisition, ±SEM, P<0.05 vs ZOL 0.5

Structure (SMILES): C#Cc1ccc2c(c1)C(c1ccccc1F)=NCc1c(C(=O)OCC)ncn1-2 [JY-XHe-053, 8-ethynyl-6-(2-fluorophenyl)-4H-2,5,10b-triaza-benzo[e]azulene-3-carboxylic acid ethyl ester]
- effect on central zone activity (male Wistar rats [1]; 2.5-40 mg/kg i.p., 30 min): not discernible
- effect on peripheral zone distance (male Wistar rats [1]; 2.5-40 mg/kg i.p., 30 min, vs control): three higher doses of JYXHe-053 were significantly different from control
- dose inducing a hypolocomotor effect in the SLA (male Wistar rats [1]): ≥ 10 mg/kg
- general activity and anxiety-related parameters (male Wistar rats [2]; 2.5-40 mg/kg i.p.): devoid of significant behavioral activity
- binding selectivity for GABAA receptors containing the α5 subunit ([3]; from Ki values): approximately 18 fold
- Ki [4]: 0.0349 µM
- % of control current, α3β3γ2 (α3β3γ2 GABAA receptors [5]): 345 ± 26%
- % of control current, α5β3γ2 (α5β3γ2 GABAA receptors [6]): 220%
- % of control current, α2β3γ2 (α2β3γ2 GABAA receptors [7]): 307 ± 14%
- % of control current, α1β3γ2 (α1β3γ2 GABAA receptors [8]): 169%

Structure (SMILES): C#Cc1ccc2c(c1)C(c1ccccn1)=NCc1c(C(=O)OCC)ncn1-2 [SH-053-2'N, 8-ethynyl-6-(2’-pyrydine)-4H-2,5,10b-triaza-benzo[e]azulene-3-carboxylic acid ethyl ester]
- effect on total distance travelled during 45 min (male Wistar rats [1]; 30 mg/kg i.p.): activity-depressing effect of all three treatments was significant
- dose inducing a hypolocomotor effect in the SLA (male Wistar rats [1]): 30 mg/kg
- effect on percentage of time on open arms (male Wistar rats [2]; 30 mg/kg i.p.): effective treatments
- effect on total arm entries (male Wistar rats [2]; 10, 20 and 30 mg/kg i.p., Dunnett's test vs solvent): significant effect of the two higher doses
- effect on distance travelled in the open arms (male Wistar rats [2]; 10, 20 and 30 mg/kg i.p., overall treatment effect): no significant effect of treatment
- effect on percentage of open arm entries (male Wistar rats [2]; 10, 20 and 30 mg/kg i.p., post hoc test): neither of the single doses was significant on its own
- % of control current, α3β3γ2 (α3β3γ2 GABAA receptors [5]): 149 ± 3%
- % of control current, α5β3γ2 (α5β3γ2 GABAA receptors [6]): 130 ± 3%
- % of control current, α2β3γ2 (α2β3γ2 GABAA receptors [7]): 165 ± 2%
- Ki [9]: > 5 µM
- % of control current, α1β3γ2 (α1β3γ2 GABAA receptors [8]): 113 ± 2%
- latency to find the platform, single day (male Wistar rats [10]; 30 mg/kg i.p., vs control or SH-053-S-CH3-2'F 30 mg/kg): significantly longer search time on the fourth day
- platform zone entries during the probe trial (male Wistar rats [10]): lack of incapacitating consequences

Structure (SMILES): C#Cc1ccc2c(c1)C(c1ccccc1F)=NC(C)c1c(C(=O)OCC)ncn1-2 (centres unmarked) [SH-053-R-CH3-2'F, 8-ethynyl-6-(2-fluorophenyl)-4-methyl-4H-2,5,10b-triaza-benzo[e]azulene-3-carboxylic acid ethyl ester]
- % of control current, α5β3γ2 (α5β3γ2 GABAA receptors [11]; 0.1 µM): 183 ± 7%
- effect on total distance (locomotion), 30 min (male Wistar rats [1]; 30 mg/kg i.p.): significantly depressed locomotion
- effect on distance travelled in 5-min bins (male Wistar rats [1]; 10, 20 and 30 mg/kg i.p., 6 intervals): did not significantly decrease locomotion
- effect on central and peripheral zone locomotion (male Wistar rats [1]; 20 and 30 mg/kg i.p.): decreased central, but not peripheral locomotion
- general activity- or anxiety-related parameters (male Wistar rats [2]; doses up to 30 mg/kg i.p.): completely devoid of changes
- % of control current, α2β3γ2 (α2β3γ2 GABAA receptors [12]): 124 ± 9%
- % of control current, α3β3γ2 (α3β3γ2 GABAA receptors [13]; 100 nM, EC3 GABA, mean ± SEM, 0.1 µM): 125 ± 8%
- remaining activity at 0.1 µM (α1β3γ2 GABAA receptors [14]; [18]): 111 ± 2%
- platform zone entries during the probe trial (male Wistar rats [10]): lack of incapacitating consequences

Structure (SMILES): C#Cc1ccc2c(c1)C(c1ccccc1F)=NC(C)c1c(C(=O)OCC)ncn1-2 (centres unmarked) [SH-053-S-CH3-2'F, 8-ethynyl-6-(2-fluorophenyl)-4-methyl-4H-2,5,10b-triaza-benzo[e]azulene-3-carboxylic acid ethyl ester]
- % of control current, α5β3γ2 (α5β3γ2 GABAA receptors [11]; 0.1 µM): 218 ± 4%
- % of control current, α2β3γ2 (α2β3γ2 GABAA receptors [12]): 169 ± 5%
- effect on percentage of open arm entries (male Wistar rats [15]): significant effect
- effect on percentage of time on open arms (male Wistar rats [15]): significant effect
- effects on general activity-related parameters (male Wistar rats [15]): without concomitant effects
- effect on locomotor activity (male Wistar rats [16]; 30 mg/kg): significant decrease of locomotor activity
- dose inducing a hypolocomotor effect in the SLA (male Wistar rats [16]): 30 mg/kg
- remaining activity at 0.1 µM (α3β3γ2 GABAA receptors [13]): 138 ± 5%
- % of control current, α1β3γ2 (α1β3γ2 GABAA receptors [14]; 100 nM, EC3 GABA, mean ± SEM): non-significant changes relative to control current
- remaining activity at 1 µM (α1β3γ2 GABAA receptors [14]; [18]): 164 ± 6%
- platform zone entries during the probe trial (male Wistar rats [10]): lack of incapacitating consequences
- Ki [17]: > 5 µM

Structure (SMILES): CN1C(=O)CN=C(c2ccccc2)c2cc(Cl)ccc21 [diazepam]
- remaining activity at 0.1 µM (α5β3γ2 GABAA receptors [11]; read-out: % of control current, α5β3γ2, 100 nM, EC3 GABA, mean ± SEM): 322 ± 7%
- effect on total distance travelled during 45 min (male Wistar rats [1]; 1.25 mg/kg i.p.): activity-depressing effect of all three treatments was significant
- effect on distance travelled in 5-min bins (male Wistar rats [1]; 2 mg/kg i.p.): induced overt sedation during the first 10 min of recording
- effect on total distance (locomotion), 30 min (male Wistar rats [1]; 2 mg/kg i.p.): significantly depressed locomotion
- effect on percentage of time on open arms (male Wistar rats [2]; 2.0 mg/kg i.p.): effective treatments
- remaining activity at 0.1 µM (α2β3γ2 GABAA receptors [12]; read-out: % of control current, α2β3γ2, 100 nM, EC3 GABA, mean ± SEM): 400 ± 22%
- remaining activity at 0.1 µM (α3β3γ2 GABAA receptors [13]): 461 ± 34%
- remaining activity at 0.1 µM (α1β3γ2 GABAA receptors [14]; [18]): 246 ± 16%

Structure (SMILES): Cc1ccc(-c2nc3ccc(C)cn3c2CC(=O)N(C)C)cc1 [zolpidem]
- % of control current, α5β3γ2 (α5β3γ2 GABAA receptors [11]): non-significant changes relative to control current
- Ki ([3]; read-out: Ki α5, [3H]flunitrazepam, transfected HEK 293T, duplicate): > 10 µM
- remaining activity at 0.1 µM (α1β3γ2 GABAA receptors [14]; [18]): 180 ± 14%
- overall influence on water maze learning parameters (acquisition) (male Wistar rats [10]; 0.5 mg/kg i.p. daily, vs control): different related to control
- percent of distance travelled in the NE quadrant that was in the target region (male Wistar rats [10]; 2 mg/kg i.p., day 5 of acquisition, chance 40%): 40.5%
- overall influence on water maze learning parameters (acquisition) (male Wistar rats [10]; 1 and 2 mg/kg i.p. daily, vs 0.5 mg/kg): behaviorally impaired related to 0.5 mg/kg zolpidem
- Peripheral ring distance, probe trial (male Wistar rats [10]; [19]): 4.16±0.61 m
- Peripheral ring time, probe trial (male Wistar rats [10]; [19]): 33.48 ± 3.68 s
- Platform distance, probe trial (male Wistar rats [10]; [19]): 0.097±0.031 m
- Platform number of entries, probe trial (male Wistar rats [10]; [19]): 1.25±0.41
- Platform quadrant (NE) distance, probe trial (male Wistar rats [10]; [19]): 2.41±0.29 m
- Platform quadrant (NE) time, probe trial (male Wistar rats [10]; [19]): 11.86 ± 1.44 s
- Platform ring distance, probe trial (male Wistar rats [10]; [19]): 5.27±0.68 m
- Platform ring time, probe trial (male Wistar rats [10]; [19]): 21.46 ± 3.05 s
- Target region distance, probe trial (male Wistar rats [10]; [19]): 1.51±0.27 m
- Target region time, probe trial (male Wistar rats [10]; [19]): 7.26 ± 1.36 s
- Peripheral ring distance, probe trial (male Wistar rats [10]; [20]): 6.09±0.89 m
- Peripheral ring time, probe trial (male Wistar rats [10]; [20]): 39.86 ± 1.67 s
- Platform distance, probe trial (male Wistar rats [10]; [20]): 0.047±0.028 m
- Platform number of entries, probe trial (male Wistar rats [10]; [20]): 0.38±0.18
- Platform quadrant (NE) distance, probe trial (male Wistar rats [10]; [20]): 2.18±0.51 m
- Platform ring distance, probe trial (male Wistar rats [10]; [20]): 4.48±0.31 m
- Platform ring time, probe trial (male Wistar rats [10]; [20]): 17.31 ± 1.38 s
- Target region distance, probe trial (male Wistar rats [10]; [20]): 1.12±0.14 m
- Target region time, probe trial (male Wistar rats [10]; zolpidem 1.0 mg/kg during acquisition, ±SEM, P<0.05 vs ZOL 0.5): 4.03 ± 0.52 s
- Peripheral ring time, probe trial (male Wistar rats [10]; [21]): 42.80 ± 3.35 s
- Platform distance, probe trial (male Wistar rats [10]; [21]): 0.053±0.023 m
- Platform number of entries, probe trial (male Wistar rats [10]; [21]): 0.50±0.19
- Platform quadrant (NE) distance, probe trial (male Wistar rats [10]; [21]): 2.22±0.44 m
- Platform ring distance, probe trial (male Wistar rats [10]; [21]): 4.00±0.65 m
- Platform ring time, probe trial (male Wistar rats [10]; [21]): 14.50 ± 2.60 s
- Target region distance, probe trial (male Wistar rats [10]; [21]): 0.99±0.22 m
- Peripheral ring distance, probe trial (male Wistar rats [10]; [22]): 7.85±0.82 m
- Target region time, probe trial (male Wistar rats [10]; [22]): 3.51 ± 0.76 s
